Test results from patent publication US20060045953A1 (priority 2004, published 2006).

Target: T1, hT1R2/hT1R3 sweet receptor (Homo sapiens, UniProt Q7RTX0+Q8TE23)
T1 construct: expressed in transfected cells; host or cells: HEK293 derivative stably expressing Gα15, clone S-9
T1 sequence (Q8TE23 20-839): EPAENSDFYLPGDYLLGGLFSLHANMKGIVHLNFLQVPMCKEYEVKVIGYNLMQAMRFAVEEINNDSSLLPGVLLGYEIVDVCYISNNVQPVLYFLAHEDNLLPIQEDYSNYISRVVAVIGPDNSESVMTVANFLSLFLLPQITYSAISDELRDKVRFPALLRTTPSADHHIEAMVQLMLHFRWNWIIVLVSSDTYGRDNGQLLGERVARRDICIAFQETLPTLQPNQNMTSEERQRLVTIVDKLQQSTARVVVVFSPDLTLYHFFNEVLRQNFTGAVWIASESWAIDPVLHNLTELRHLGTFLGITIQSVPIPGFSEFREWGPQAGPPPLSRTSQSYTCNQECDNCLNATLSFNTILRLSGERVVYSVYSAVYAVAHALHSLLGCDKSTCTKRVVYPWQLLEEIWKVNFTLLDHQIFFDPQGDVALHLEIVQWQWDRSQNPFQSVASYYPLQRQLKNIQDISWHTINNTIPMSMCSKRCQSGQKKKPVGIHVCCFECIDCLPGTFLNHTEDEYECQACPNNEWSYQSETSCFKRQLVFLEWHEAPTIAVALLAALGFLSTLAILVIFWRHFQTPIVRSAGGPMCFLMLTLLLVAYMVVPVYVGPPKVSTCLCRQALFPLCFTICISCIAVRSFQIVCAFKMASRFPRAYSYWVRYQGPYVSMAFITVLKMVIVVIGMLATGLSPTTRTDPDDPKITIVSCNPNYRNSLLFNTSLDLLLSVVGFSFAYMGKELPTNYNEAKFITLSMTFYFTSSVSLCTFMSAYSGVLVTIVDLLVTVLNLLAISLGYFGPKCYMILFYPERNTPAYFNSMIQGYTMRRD
T1 sequence (Q7RTX0 21-852): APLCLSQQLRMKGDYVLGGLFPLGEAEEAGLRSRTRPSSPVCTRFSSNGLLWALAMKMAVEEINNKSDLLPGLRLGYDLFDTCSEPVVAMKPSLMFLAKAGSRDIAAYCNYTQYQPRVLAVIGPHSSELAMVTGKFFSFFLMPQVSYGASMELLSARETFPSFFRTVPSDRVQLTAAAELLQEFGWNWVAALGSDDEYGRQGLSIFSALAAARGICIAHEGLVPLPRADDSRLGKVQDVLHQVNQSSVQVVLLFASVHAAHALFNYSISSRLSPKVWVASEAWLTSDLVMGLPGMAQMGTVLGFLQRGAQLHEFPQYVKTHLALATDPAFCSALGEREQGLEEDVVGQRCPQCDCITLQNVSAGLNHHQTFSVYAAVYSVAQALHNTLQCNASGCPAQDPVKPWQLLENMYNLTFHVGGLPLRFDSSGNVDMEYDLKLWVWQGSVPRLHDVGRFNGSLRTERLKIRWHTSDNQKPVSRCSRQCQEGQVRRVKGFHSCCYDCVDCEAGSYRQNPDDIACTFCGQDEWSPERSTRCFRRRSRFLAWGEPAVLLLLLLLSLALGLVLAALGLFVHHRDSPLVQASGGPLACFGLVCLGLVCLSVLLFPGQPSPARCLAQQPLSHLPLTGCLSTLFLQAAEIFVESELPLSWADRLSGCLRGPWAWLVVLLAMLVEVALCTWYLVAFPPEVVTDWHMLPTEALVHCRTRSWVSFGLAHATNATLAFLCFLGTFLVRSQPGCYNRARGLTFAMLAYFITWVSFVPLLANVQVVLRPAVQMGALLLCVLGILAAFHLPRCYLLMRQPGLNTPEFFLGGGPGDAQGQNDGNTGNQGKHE
Assay: In vitro hT1R2/hT1R3 sweet taste receptor activation assay (FLIPR, dose response)
Assay type: cell-based
Conditions: Table E, Sweet Enhancer Amides; read-out: Sweet EC50
Procedure: Activity was determined using an automated fluorometric imaging assay on a FLIPR instrument (Fluorometric Intensity Plate Reader, Molecular Devices, Sunnyvale, Calif.) (designated FLIPR assay). […] S-9 cells were grown for 24 hours at 37° C. S-9 cells were then loaded with the calcium dye Fluo-3AM (Molecular Probes, Eugene, Oreg.), 4 µM in a phosphate buffered saline (D-PBS) (Invitrogen, Carlsbad, Calif.), for 1 hour at room temperature. After replacement with 25 µl D-PBS, stimulation was performed in the FLIPR instrument and at room temperature by the addition of 25 µl D-PBS supplemented with different stimuli at concentrations corresponding to twice the desired final level.
For dose-responses analysis, stimuli were presented in duplicates at 10 different concentrations ranging from 60 nM to 30 µM. Activities were normalized to the response obtained with 400 mM D-fructose, a concentration that elicits maximum receptor response. EC50s were determined using a non-linear regression algorithm (using a Senomyx, Inc. software), where the Hill slope, bottom asymptotes and top asymptotes were allow to vary.

Row | SMILES | EC50
1 | Cc1cccc(C)c1C(=O)N[C@H]1CCCc2ccccc21 [Example E14, (S)-2,6-dimethyl-N-(1,2,3,4-tetrahydronaphthalen-1-yl)benzamide] | 2910 nM
2 | O=C(NC1CCCc2ccccc21)c1c(Cl)cccc1Cl (stereo not shown) [Example E15, 2,6-dichloro-N-(1,2,3,4-tetrahydronaphthalen-1-yl)benzamide] | 3020 nM
3 | COc1c(Cl)ccc(Cl)c1C(=O)NC1CCCc2ccccc21 (stereo not shown) [Example E16, 3,6-dichloro-2-methoxy-N-(1,2,3,4-tetrahydronaphthalen-1-yl)benzamide] | 3040 nM
4 | Cc1c(F)cccc1C(=O)N[C@H]1CCCc2ccccc21 [Example E19, (S)-3-fluoro-2-methyl-N-(1,2,3,4-tetrahydronaphthalen-1-yl)benzamide] | 3570 nM
5 | COc1ccc(Cl)c(OC)c1C(=O)N[C@H]1CCCc2ccccc21 [Example E20, (S)-3-chloro-2,6-dimethoxy-N-(1,2,3,4-tetrahydronaphthalen-1-yl)benzamide] | 4130 nM
6 | O=C(N[C@@H]1CCCc2ccccc21)c1cccc(Cl)c1 [Example E22, (R)-3-chloro-N-(1,2,3,4-tetrahydronaphthalen-1-yl)benzamide] | 4520 nM
7 | O=C(N[C@@H]1CCCc2ccccc21)c1cc(O)ccc1O [Example E24, (R)-2,5-dihydroxy-N-(1,2,3,4-tetrahydronaphthalen-1-yl)benzamide] | 6040 nM
8 | Cc1nocc1C(=O)N[C@@H]1CCCc2ccccc21 [Example E25, (R)-3-methyl-N-(1,2,3,4-tetrahydronaphthalen-1-yl)isoxazole-4-carboxamide] | 7790 nM
9 | Cc1c(F)c(F)c(C(=O)NC(C)C(C)C)c(F)c1F (stereo not shown) [Example E27, 2,3,5,6-tetrafluoro-4-methyl-N-(3-methylbutan-2-yl)benzamide] | 140 nM
10 | Cc1c(F)c(F)c(C(=O)NC(C)C(C)(C)C)c(F)c1F (stereo not shown) [Example E28, N-(3,3-dimethylbutan-2-yl)-2,3,5,6-tetrafluoro-4-methylbenzamide] | 210 nM
11 | CC1CCCCC1NC(=O)c1cccc(OC(F)(F)F)c1 (stereo not shown) [Example E29, N-(2-methylcyclohexyl)-3-(trifluoromethoxy)benzamide] | 420 nM
12 | Cc1c(F)c(F)c(C(=O)N[C@H](C)C(C)(C)C)c(F)c1F [Example E31, (R)-N-(3,3-dimethylbutan-2-yl)-2,3,5,6-tetrafluoro-4-methylbenzamide] | 490 nM
13 | CC1CCCCC1NC(=O)c1ccc(F)c(C(F)(F)F)c1 (stereo not shown) [Example E32, 4-fluoro-N-(2-methylcyclohexyl)-3-(trifluoromethyl)benzamide] | 510 nM
14 | CC1CCCCC1NC(=O)c1cc(Cl)ccc1Cl (stereo not shown) [Example E33, 2,5-dichloro-N-(2-methylcyclohexyl)benzamide] | 630 nM
15 | COc1c(Cl)cc(Cl)c(OC)c1C(=O)NC1CCCCC1C (stereo not shown) [Example E35, 3,5-dichloro-2,6-dimethoxy-N-(2-methylcyclohexyl)benzamide] | 710 nM
16 | COc1c(Cl)ccc(Cl)c1C(=O)NC1CCCCC1C (stereo not shown) [Example E37, 3,6-dichloro-2-methoxy-N-(2-methylcyclohexyl)benzamide] | 770 nM
17 | Cc1c(F)c(F)c(C(=O)N[C@@H](C)C(C)(C)C)c(F)c1F [Example E38, (S)-N-(3,3-dimethylbutan-2-yl)-2,3,5,6-tetrafluoro-4-methylbenzamide] | 900 nM
18 | CC1CCCCC1NC(=O)c1c(Cl)cccc1Cl (stereo not shown) [Example E39, 2,6-dichloro-N-(2-methylcyclohexyl)benzamide] | 910 nM
19 | COc1cc(C(=O)NC2CCCCC2C)cc(Cl)n1 (stereo not shown) [Example E40, 2-chloro-6-methoxy-N-(2-methylcyclohexyl)isonicotinamide] | 950 nM
20 | Cc1c(F)c(F)c(C(=O)NC2CCCC(C)C2C)c(F)c1F (stereo not shown) [Example E43, N-(2,3-dimethylcyclohexyl)-2,3,5,6-tetrafluoro-4-methylbenzamide] | 1080 nM
21 | Cc1c(F)c(F)c(C(=O)NC2CCCCC2)c(F)c1F [Example E45, N-cyclohexyl-2,3,5,6-tetrafluoro-4-methylbenzamide] | 1130 nM
22 | Cc1c(F)c(F)c(C(=O)NC2CCCCCCC2)c(F)c1F [Example E46, N-cyclooctyl-2,3,5,6-tetrafluoro-4-methylbenzamide] | 1250 nM
23 | O=C(NC1CCc2ccccc21)c1cccc(Cl)c1O (stereo not shown) [Example E51, 3-chloro-N-(2,3-dihydro-1H-inden-1-yl)-2-hydroxybenzamide] | 1490 nM
24 | Cc1ccc2ccccc2c1C(=O)NC1CCCCC1C (stereo not shown) [Example E52, 2-methyl-N-(2-methylcyclohexyl)-1-naphthamide] | 1520 nM

More lines, in order of falling EC50, values ahead:

Row | EC50 | SMILES
25 | 4860 nM | O=C(N[C@@H]1CCCc2ccccc21)c1cccc(F)c1 [Example E23, (R)-3-fluoro-N-(1,2,3,4-tetrahydronaphthalen-1-yl)benzamide]
26 | 4190 nM | O=C(N[C@@H]1CCCc2ccccc21)c1cncc(Br)c1 [Example E21, (R)-5-bromo-N-(1,2,3,4-tetrahydronaphthalen-1-yl)nicotinamide]
27 | 3130 nM | O=C(N[C@@H]1CCCc2ccccc21)c1cccc(O)c1O [Example E17, (R)-2,3-dihydroxy-N-(1,2,3,4-tetrahydronaphthalen-1-yl)benzamide]
28 | 1700 nM | CC1CCCCC1NC(=O)c1ccc(F)c(Cl)c1 (stereo not shown) [Example E53, 3-chloro-4-fluoro-N-(2-methylcyclohexyl)benzamide]
29 | 1410 nM | Cc1cc(C)c(C(=O)NC2CCCC(C)C2C)c(C)c1 (stereo not shown) [Example E50, N-(2,3-dimethylcyclohexyl)-2,4,6-trimethylbenzamide]
30 | 1290 nM | COc1c(Cl)ccc(Cl)c1C(=O)NC1CCCC(C)C1C (stereo not shown) [Example E48, 3,6-dichloro-N-(2,3-dimethylcyclohexyl)-2-methoxybenzamide]
31 | 1250 nM | Cc1c(F)c(F)c(C(=O)N[C@H](C)C(C)C)c(F)c1F [Example E47, (R)-2,3,5,6-tetrafluoro-4-methyl-N-(3-methylbutan-2-yl)benzamide]
32 | 1080 nM | CC1CCCC(NC(=O)c2ccnc(Cl)c2)C1C (stereo not shown) [Example E44, 2-chloro-N-(2,3-dimethylcyclohexyl)isonicotinamide]
33 | 1060 nM | CCC(COC)NC(=O)c1ccc(C)cc1C (stereo not shown) [Example E42, N-(1-methoxybutan-2-yl)-2,4-dimethylbenzamide]
34 | 1020 nM | Cc1c(F)c(F)c(C(=O)N[C@@H]2CC3CCC2C3)c(F)c1F (stereo partly drawn) [Example E41, N-((2R)-bicyclo[2.2.1]heptan-2-yl)-2,3,5,6-tetrafluoro-4-methylbenzamide]
35 | 720 nM | Cc1cc(C)c(C(=O)NC2CCCCC2C)c(C)c1 (stereo not shown) [Example E36, 2,4,6-trunethyl-N-(2-methylcyclohexyl)benzamide]
36 | 710 nM | CCCCC(C)NC(=O)c1c(F)c(F)c(C)c(F)c1F (stereo not shown) [Example E34, 2,3,5,6-tetrafluoro-N-(hexan-2-yl)-4-methylbenzamide]
37 | 450 nM | CC1CCCCC1NC(=O)c1cc(F)cc(Cl)c1 (stereo not shown) [Example E30, 3-chloro-5-fluoro-N-(2-methylcyclohexyl)benzamide]
